These results are taken from ChEMBL document CHEMBL1201862, “PubChem BioAssay data set” (2004).

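Assay format: 96-well plates, 48-hour exposure. Here, GI50 denotes the concentration required for 50% inhibition of growth.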 The source made the active and inactive calls. Cut-off read from the data, not from the text of the source: active = GI50 up to about 1.1 µM and inactive = higher.

Among the test systems are A498; ACHN; BT-549; CAKI-1; EKVX; HCC 2998; HCT-15; HL-60; K562; MDA-N; NCI-H522; NCI/ADR-RES; SF-295; SK-MEL-28; SK-OV-3; SW-620; UACC-257; HT-29; NCI-H226.
Experiment in all cases: NCI tumour cell line growth inhibition, 48 h

Consider `CN(C)c1ccc(-c2c(C#N)c(S)n(NS(=O)(=O)c3ccccc3)c(=O)c2C#N)cc1`, for which the GI50 with A498 is 22.3 µM (inactive); in the test on ACHN it was 26.8 µM (inactive); in the test on BT-549, 21.1 µM (inactive); in the test on CAKI-1 it was 23.8 µM (inactive); in the test on EKVX, 32.6 µM (inactive); with HCC 2998, 70.8 µM (inactive). In addition, the GI50 in the test on HCT-15 was 20.5 µM; in the test on HL-60 it was 15.7 µM (inactive); in the test with K562 it was 30.7 µM (inactive); in the test with MDA-N it was 25 µM (inactive); in the test with NCI-H522, 14.7 µM (inactive); in the test with NCI/ADR-RES, 19.3 µM (inactive). Besides, the GI50 in the test on SF-295 was 31 µM (inactive); in the test on SK-MEL-28, 36.1 µM (inactive); in the test on SK-OV-3, 59.6 µM (inactive); with SW-620, 38.9 µM (inactive); with UACC-257, 45.8 µM (inactive).
In the case of `C[N+]1(CCC(=O)c2ccccc2)CCC2CCC(C2)C1` (centres undefined), the GI50 in the test with A498, with ACHN, in the test with BT-549, in the test on CAKI-1, in the test with EKVX and in the test on HCC 2998 was > 100 µM (inactive) in each case. Moreover, the GI50 in the test with HCT-15 was above 100 µM; with HL-60, > 100 µM (inactive); in the test on HT-29, > 100 µM (inactive); in the test on K562, > 100 µM (inactive); with MDA-N it was > 100 µM (inactive); in the test with NCI-H226 it was > 100 µM (inactive). Also, the GI50 with NCI-H522, with NCI/ADR-RES, in the test with SF-295, with SK-MEL-28, with SK-OV-3 and in the test with SW-620 was > 100 µM (inactive) each time. In addition, in the test on UACC-257, the GI50 is > 100 µM (inactive).
Consider `CC1CNC(NS(=O)(=O)c2cc(C(=O)Nc3ccc(Cl)cc3)c(Cl)cc2S)=NN1` (centres undefined), for which the GI50 in the test with A498 was 18.1 µM (inactive); in the test with ACHN, 40 µM (inactive); with BT-549, 53.7 µM (inactive); in the test with CAKI-1, 51.5 µM (inactive); in the test with EKVX it was 63 µM (inactive); in the test with HCC 2998 it was 19.1 µM (inactive). The GI50 in the test with HCT-15 is 20.8 µM; with HL-60 it was > 100 µM (inactive); in the test on HT-29, 36.3 µM (inactive); with K562, 31.1 µM (inactive); in the test with MDA-N, 27.3 µM (inactive); with NCI-H226, 27.5 µM (inactive). For the same compound, the GI50 was 28.2 µM (inactive) in the test on NCI-H522; 36.6 µM (inactive) in the test with NCI/ADR-RES; 35.8 µM (inactive) in the test on SF-295; 22.3 µM (inactive) with SK-MEL-28; 59.4 µM (inactive) with SK-OV-3; 34.1 µM (inactive) with SW-620. In addition, the GI50 in the test with UACC-257 is 54.2 µM (inactive).
Regarding `N=C(N)N/N=C/c1c(-c2ccc(Cl)cc2)nc2sc(Cl)cn12`, the GI50 with A498 was 1.74 µM (inactive); with ACHN, 3.85 µM (inactive); with BT-549, 1.27 µM (inactive); in the test on CAKI-1 it was 1.5 µM (inactive); in the test with EKVX, 1.85 µM (inactive); with HCT-15 it was 1.36 µM. Further, the GI50 with HL-60 was 0.201 µM (active); in the test on HT-29 it was 0.646 µM (active); with MDA-N, 1.72 µM (inactive); in the test with NCI-H226, 1.94 µM (inactive); in the test on NCI-H522, 2.04 µM (inactive); in the test with NCI/ADR-RES, 1.79 µM (inactive). The GI50 with SF-295 is 1.79 µM (inactive); in the test with SK-MEL-28 it was 1.81 µM (inactive); with SK-OV-3 it was 1.93 µM (inactive); in the test with SW-620 it was 1.09 µM (active); in the test on UACC-257, 1.8 µM (inactive).
With `COc1ccc(OC/C(N)=N/NC(=O)c2ccncc2)cc1`, the GI50 in the test with A498, in the test with ACHN, in the test with BT-549, in the test on CAKI-1, in the test with EKVX and in the test with HCC 2998 was > 100 µM (inactive) in each case. The GI50 was above 100 µM in the test on HCT-15; > 100 µM (inactive) in the test with HL-60; > 100 µM (inactive) in the test on HT-29; > 100 µM (inactive) with K562; > 100 µM (inactive) with MDA-N; > 100 µM (inactive) in the test on NCI-H522. In addition, the GI50 in the test with NCI/ADR-RES, in the test with SF-295, in the test on SK-MEL-28, in the test with SK-OV-3, in the test with SW-620 and in the test on UACC-257 was > 100 µM (inactive) in each case.
With `COc1ccc(N)c(C(O)CCNC(C)=O)c1` (centres undefined), the GI50 was > 100 µM (inactive) in the test with A498; > 100 µM (inactive) in the test with ACHN; > 100 µM (inactive) in the test with BT-549; > 100 µM (inactive) in the test on CAKI-1; > 100 µM (inactive) in the test with EKVX; above 100 µM with HCT-15. Besides, the GI50 in the test on HL-60, with HT-29, with MDA-N, in the test with NCI-H226, in the test with NCI-H522 and in the test with NCI/ADR-RES was > 100 µM (inactive) throughout. Besides, the GI50 with SF-295, in the test with SK-OV-3, in the test with SW-620 and in the test on UACC-257 was > 100 µM (inactive) throughout.
With `c1ccc(C[n+]2cccc(-c3cc4ccccc4[nH]3)c2)cc1`, the GI50 with A498 is 39.5 µM (inactive); in the test with ACHN, > 100 µM (inactive); in the test on BT-549 it was 13.4 µM (inactive); with CAKI-1, > 100 µM (inactive); in the test on EKVX, 42.8 µM (inactive); in the test on HCT-15 it was above 100 µM. Also, the GI50 is 17.6 µM (inactive) in the test with HL-60; 32.5 µM (inactive) in the test on HT-29; 21.6 µM (inactive) in the test on K562; 19.1 µM (inactive) in the test with MDA-N; 31.2 µM (inactive) in the test with NCI-H226; 16.4 µM (inactive) in the test on NCI-H522. Also, the GI50 was > 100 µM (inactive) in the test on NCI/ADR-RES; 77.8 µM (inactive) with SF-295; 16.4 µM (inactive) in the test on SK-MEL-28; > 100 µM (inactive) in the test with SK-OV-3; 72.6 µM (inactive) in the test with SW-620; 14.9 µM (inactive) with UACC-257.
As to `CCOC(=O)/C=C(\C(=O)OCC)n1cc(Cl)c(=O)n(CC(=O)OCC)c1=O`, the GI50 was 19.2 µM (inactive) in the test on A498; 1.63 µM (inactive) with ACHN; 18 µM (inactive) in the test with BT-549; 2.25 µM (inactive) in the test on CAKI-1; 14.3 µM (inactive) with EKVX; 21.1 µM (inactive) in the test with HCC 2998. Moreover, the GI50 in the test on HCT-15 was 3.17 µM; in the test on HL-60, 2.81 µM (inactive); in the test on HT-29, 16.5 µM (inactive); in the test with MDA-N, 11.3 µM (inactive); with NCI-H226 it was 16.4 µM (inactive); with NCI-H522 it was 0.78 µM (active). In addition, the GI50 was 27.6 µM (inactive) in the test with NCI/ADR-RES; > 43.5 µM (inactive) in the test on SF-295; 16.7 µM (inactive) in the test on SK-MEL-28; 19.5 µM (inactive) with SK-OV-3; 1.91 µM (inactive) in the test on SW-620; 2.96 µM (inactive) in the test with UACC-257.
Consider `Cn1ccc(C(=O)NCCCCCNC(=O)c2ccn(C)c(=O)c2O)c(O)c1=O`, for which the GI50 in the test with A498 was > 100 µM (inactive); in the test on ACHN, > 100 µM (inactive); in the test with BT-549, > 100 µM (inactive); with CAKI-1, > 100 µM (inactive); with HCC 2998, > 100 µM (inactive); in the test with HCT-15 it was above 100 µM. In addition, the GI50 with HL-60, in the test on HT-29, with MDA-N, in the test on NCI-H226, with NCI-H522 and in the test on NCI/ADR-RES was > 100 µM (inactive) in each case. For the same compound, the GI50 in the test on SK-MEL-28, in the test with SW-620 and with UACC-257 was > 100 µM (inactive) throughout.
On to `CC(=O)N(C)c1ccc(/N=C/N(C)C)cc1`, for which the GI50 in the test with A498 is > 100 µM (inactive); in the test with ACHN it was > 100 µM (inactive); in the test with BT-549, > 100 µM (inactive); in the test on CAKI-1, > 100 µM (inactive); with EKVX, > 100 µM (inactive); in the test on HCT-15 it was above 100 µM. For the same compound, the GI50 with HL-60, in the test on HT-29, with K562, with MDA-N, in the test on NCI-H226 and in the test with NCI-H522 was > 100 µM (inactive) each time. Also, the GI50 with NCI/ADR-RES, in the test with SF-295, in the test with SK-MEL-28, with SK-OV-3 and with UACC-257 was > 100 µM (inactive) throughout.
Regarding `CCOc1ccccc1/N=N/C1C(=O)N(C(=O)CC(=O)Nc2ccccc2C)N=C1C` (centres undefined), the GI50 is 29.2 µM (inactive) with A498; > 100 µM (inactive) with ACHN; 65.5 µM (inactive) in the test with BT-549; > 100 µM (inactive) in the test with CAKI-1; 0.984 µM (active) with EKVX; > 100 µM (inactive) in the test on HCC 2998. For the same compound, the GI50 was 20.9 µM in the test on HCT-15; > 100 µM (inactive) in the test with HL-60; > 100 µM (inactive) with HT-29; > 100 µM (inactive) in the test on MDA-N; > 100 µM (inactive) in the test with NCI-H226; 61.2 µM (inactive) with NCI-H522. For the same compound, the GI50 in the test on NCI/ADR-RES was 54.6 µM (inactive); in the test with SF-295 it was 15.9 µM (inactive); in the test with SK-MEL-28 it was > 100 µM (inactive); with SK-OV-3, 19.7 µM (inactive); in the test with SW-620, > 100 µM (inactive).
`CC(=O)Nc1ccc2c3c(cc(O)c2c1)N(C(=O)CCCC(=O)Nc1ccc2c4c(cc(O)c2c1)N(C(=O)OC(C)(C)C)CC4CCl)CC3CCl` (centres undefined): the GI50 in the test on A498 is 1.02 µM (active); in the test with ACHN it was 5.22 µM (inactive); with BT-549 it was 0.881 µM (active); in the test on CAKI-1, > 50 µM (inactive); with EKVX it was 5.24 µM (inactive); in the test with HCC 2998, 0.771 µM (active). The GI50 was above 50 µM with HCT-15; 0.118 µM (active) with HL-60; 1.19 µM (inactive) in the test with HT-29; 1.22 µM (inactive) with K562; 1.05 µM (active) in the test on MDA-N; 0.371 µM (active) with NCI-H522. Further, the GI50 was > 50 µM (inactive) with NCI/ADR-RES; 13.4 µM (inactive) in the test with SF-295; 1.91 µM (inactive) with SK-MEL-28; 1.62 µM (inactive) in the test with SK-OV-3; 1.82 µM (inactive) in the test on SW-620; 1.04 µM (active) in the test on UACC-257.
